The record followed here is patent publication US20180325889A1, “IMMUNOREGULATORY AGENTS” (FLEXUS BIOSCIENCES, INC., priority 2014, published 2018).

By IC50 is commonly meant the point on the concentration scale where inhibition reaches its midpoint.

A value given as a limit tells only on which side of the number the result lay.

In this test the target is T1, human IDO1/HEK293 cells (Homo sapiens, UniProt P14902).
T1 construct: expressed in transfected cells
The test is described as follows: HEK Human IDO-1 cell-based IDO inhibition assay (kynurenine production). Conditions: HEK293 cells stably expressing human IDO1, 20 hours incubation, absorbance at 490 nm; read-out: HEK Human IDO-1 Bio Activity (IDO IC50). How it is done: They were cultured in medium (DMEM with 10% FBS) containing 1 mg/ml G418 for two weeks.
The human IDO1/HEK293 cells were seeded at 10,000 cells per 50 μL per well with RPMI/phenol red free media contains 10% FBS in a 384-well black wall clear bottom tissue culture plate (Matrix Technologies LLC) 100 nL of certain concentration of compound was then added to each well using ECHO liquid handling systems. The cells were incubated for 20 hours in 37° C. incubator with 5% CO2.
The compound treatments were stopped by adding trichloroacetic acid (Sigma-Aldrich) to a final concentration at 0.2%. The cell plate was further incubated at 50° C. for 30 minute. The equal volume supernatant (20 μL) and 0.2% (w/v) Ehrlich reagent (4-dimethylaminobenzaldehyde, Sigma-Aldrich) in glacial acetic acid were mixed in a new clear bottom 384-well plate. This plate was then incubated at room temperature for 30 minute. The absorbance at 490 nm was measured on Envision plate reader.

T1 sequence (P14902 whole entry): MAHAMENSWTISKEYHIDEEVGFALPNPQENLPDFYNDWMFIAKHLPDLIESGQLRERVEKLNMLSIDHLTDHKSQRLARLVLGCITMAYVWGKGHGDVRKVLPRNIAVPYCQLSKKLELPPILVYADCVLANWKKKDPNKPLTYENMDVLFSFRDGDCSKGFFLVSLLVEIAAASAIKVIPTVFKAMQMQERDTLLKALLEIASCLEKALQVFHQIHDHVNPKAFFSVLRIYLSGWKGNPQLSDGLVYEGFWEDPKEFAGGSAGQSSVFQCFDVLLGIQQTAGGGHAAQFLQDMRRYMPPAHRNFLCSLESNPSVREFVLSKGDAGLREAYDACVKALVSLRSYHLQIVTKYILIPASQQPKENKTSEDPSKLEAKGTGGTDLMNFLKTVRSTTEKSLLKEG

For `CCC(NC(=O)c1ccc(Cl)cc1)C1CCC(c2cccc(C(F)F)n2)CC1` (mixture of isomers) [Example 231a, 4-chloro-N-(1-(4-(6-(difluoromethyl)pyridin-2-yl)cyclohexyl)propyl)benzamide], the IC50 is below 250 nM. For the compound `CCC(NC(=O)c1ccc(Cl)cc1)[C@H]1CC[C@H](Oc2ccnc3ccccc23)CC1` (mixture of isomers) [Example 71, 4-Chloro-N-(1-((trans)-4-(quinolin-4-yloxy)cyclohexyl)propyl)benzamide], the IC50 is below 50 nM. The result for `CCC(NC(=O)c1ccc(Cl)cc1)[C@H]1CC[C@@H](Oc2ccncc2)CC1` (mixture of isomers) [Example 77a, (±)-4-Chloro-N-(1-((cis)-4-(pyridin-4-yloxy)cyclohexyl)propyl)benzamide] reads below 250 nM. With `CCC(NC(=O)c1ccc(Cl)cc1)[C@H]1CC[C@@H](Oc2ccnc3ccc(C(F)(F)F)cc23)CC1` (mixture of isomers) [Example 78, (±)-4-Chloro-N-(1-((cis)-4-((6-(trifluoromethyl)quinolin-4-yl)oxy)cyclohexyl)propyl)benzamide] the figure was below 2000 nM; with `Cc1nccc(O[C@H]2CC[C@H](C(C)NC(=O)c3ccc(Cl)cc3)CC2)c1Cl` (mixture of isomers) [Example 207, rac-4-chloro-N-(1-((trans)-4-((3-chloro-2-methylpyridin-4-yl)oxy)cyclohexyl)ethyl)benzamide], below 50 nM. With `Cc1nccc(OC2CCC(C(C)NC(=O)c3ccc(F)cc3)CC2)c1Cl` (racemic) [Example 208] the figure was below 250 nM; with `COc1ccc(C(=O)NC(C)C2CCC(Oc3ccnc(C)c3Cl)CC2)cc1` (racemic) [Example 209], below 250 nM. With `Cc1ccc(C(=O)NC(C)C2CCC(Oc3ccnc(C)c3Cl)CC2)cc1` (racemic) [Example 210], the 50% inhibitory concentration (IC50) is below 250 nM.

For `CCC(NC(=O)c1ccc(-c2ccccc2)cc1)[C@H]1CC[C@@H](c2ccnc3ccc(C(F)(F)F)cc32)CC1` (mixture of isomers) [Example 230, N-(1-((1s,4s)-4-(6-(trifluoromethyl)quinolin-4-yl)cyclohexyl)propyl)biphenyl-4-carboxamide], the IC50 is below 50 nM. As for `Cc1cc(C2CCC(C(C)NC(=O)c3ccc(Cl)cc3)CC2)ccn1` (single isomer, unassigned) [Example 157b, 4-Chloro-N-(1-(4-(2-methylpyridin-4-yl)cyclohexyl)ethyl) Benzamide], the half-maximal inhibitory concentration (IC50) was below 50 nM. Regarding `Cc1cc(C2CCC(C(C)NC(=O)c3ccc(Cl)cc3)CC2)ccn1` (single isomer, unassigned) [Example 157c, 4-Chloro-N-(1-(4-(2-methylpyridin-4-yl)cyclohexyl)ethyl) Benzamide], the IC50 was below 2000 nM. `Cc1cc(C2CCC(C(C)NC(=O)c3ccc(Cl)cc3)CC2)ccn1` (single isomer, unassigned) [Example 157d, 4-Chloro-N-(1-(4-(2-methylpyridin-4-yl)cyclohexyl)ethyl) Benzamide]: the concentration for half-maximal inhibition (IC50) was below 2000 nM. The result for `Cc1cc(C2CCC(C(C)NC(=O)c3ccc(Cl)cc3)CC2)ccn1` (single isomer, unassigned) [Example 157e, 4-Chloro-N-(1-(4-(2-methylpyridin-4-yl)cyclohexyl)ethyl) Benzamide] reads below 2000 nM; that for `CCC(NC(=O)c1ccc(Cl)cc1)C1CCC(c2ccnc3ccc(F)cc23)CC1` (single isomer, unassigned) [Example 164a, 4-Chloro-N-(1-(4-(6-fluoroquinolin-4-yl)cyclohexyl)propyl)benzamide], below 250 nM; that for `CCC(NC(=O)c1ccc(Cl)cc1)C1CCC(c2ccnc3ccc(F)cc23)CC1` (single isomer, unassigned) [Example 164b, 4-Chloro-N-(1-(4-(6-fluoroquinolin-4-yl)cyclohexyl)propyl)benzamide], below 50 nM.

For the compound `CCC(NC(=O)c1ccc(Cl)cc1)C1CCC(c2ccnc3ccc(F)cc23)CC1` (single isomer, unassigned) [Example 164c, 4-Chloro-N-(1-(4-(6-fluoroquinolin-4-yl)cyclohexyl)propyl)benzamide], the concentration for half-maximal inhibition (IC50) was below 50 nM.

Regarding `CCC(NC(=O)c1ccc(Cl)cc1)C1CCC(c2ccnc3ccc(F)cc23)CC1` (single isomer, unassigned) [Example 164d, 4-Chloro-N-(1-(4-(6-fluoroquinolin-4-yl)cyclohexyl)propyl)benzamide], the IC50 is below 50 nM.

Take `CCC(NC(=O)c1ccc(C#N)cc1)C1CCC(c2ccnc3ccc(F)cc23)CC1` (single isomer, unassigned) [Example 165a, 4-Cyano-N-(1-(4-(6-fluoroquinolin-4-yl)cyclohexyl)propyl)benzamide]: the concentration for half-maximal inhibition (IC50) is below 2000 nM. The result for `CCC(NC(=O)c1ccc(C#N)cc1)C1CCC(c2ccnc3ccc(F)cc23)CC1` (single isomer, unassigned) [Example 165b, 4-Cyano-N-(1-(4-(6-fluoroquinolin-4-yl)cyclohexyl)propyl)benzamide] reads below 50 nM; that for `CCC(NC(=O)c1ccc(C#N)cc1)C1CCC(c2ccnc3ccc(F)cc23)CC1` (single isomer, unassigned) [Example 165c, 4-Cyano-N-(1-(4-(6-fluoroquinolin-4-yl)cyclohexyl)propyl)benzamide], below 50 nM. Consider `CCC(NC(=O)c1ccc(C#N)cc1)C1CCC(c2ccnc3ccc(F)cc23)CC1` (single isomer, unassigned) [Example 165d, 4-Cyano-N-(1-(4-(6-fluoroquinolin-4-yl)cyclohexyl)propyl)benzamide], for which the IC50 was below 50 nM.

With `CC[C@@H](NC(=O)c1ccc(Cl)cc1)[C@H]1CC[C@@H](c2cnc3ccccc3c2)CC1` (single isomer, unassigned) [Example 203a], the IC50 is below 2000 nM.

With `CC[C@H](NC(=O)c1ccc(Cl)cc1)[C@H]1CC[C@@H](c2cnc3ccccc3c2)CC1` (single isomer, unassigned) [Example 203b], the concentration for half-maximal inhibition (IC50) is below 250 nM. With `CC[C@@H](NC(=O)c1ccc(Cl)cc1)[C@H]1CC[C@H](c2cnc3ccccc3c2)CC1` (single isomer, unassigned) [Example 203c] the figure was below 50 nM; with `CC[C@H](NC(=O)c1ccc(Cl)cc1)[C@H]1CC[C@H](c2cnc3ccccc3c2)CC1` (single isomer, unassigned) [Example 203d], below 50 nM; with `CC(NC(=O)c1ccc(Cl)cc1)C1CCC(c2ccnc(C(F)(F)F)c2)CC1` (single isomer, unassigned) [Example 212, 4-chloro-N-(1-(4-(2-(trifluoromcthyl)pyridin-4-yl)cyclohexyl)ethyl)benzamide], below 2000 nM. On to `CC(NC(=O)c1ccc(Cl)cc1)C1CCC(c2ccnc(C(F)(F)F)c2)CC1` (single isomer, unassigned) [Example 213, 4-chloro-N-(1-(4-(2-(trifluoromethyl)pyridin-4-yl)cyclohexyl)ethyl)benzamide], for which the IC50 was below 50 nM.

With `CC(NC(=O)c1ccc(Cl)cc1)C1CCC(c2ccnc(C(F)(F)F)c2)CC1` (single isomer, unassigned) [Example 214, 4-chloro-N-(1-(4-(2-(trifluorornethyl)pyridin-4-yl)cyclohexyl)ethyl)benzamide], the IC50 is below 250 nM. As for `CC(NC(=O)c1ccc(Cl)cc1)C1CCC(c2ccnc(C(F)(F)F)c2)CC1` (single isomer, unassigned) [Example 215, 4-chloro-N-(1-(4-(2-(trifluoromcthyl)pyridin-4-yl)cyclohcxyl)ethyl)benzamide], the IC50 is below 2000 nM.

On to `CC(NC(=O)c1ccc(Cl)cc1)C1CCC(c2ccc(C(F)(F)F)nc2)CC1` (single isomer, unassigned) [Example 217, 4-chloro-N-(1-(4-(6-(trifluoromethyl)pyridin-3-yl)cyclohexyl)ethyl)benzamide], for which the IC50 is below 2000 nM. For the compound `CC(NC(=O)c1ccc(Cl)cc1)C1CCC(c2ccc(C(F)(F)F)nc2)CC1` (single isomer, unassigned) [Example 218, 4-chloro-N-(1-(4-(6-(trifluoromethyl)pyridin-3-yl)cyclohexyl)ethyl)benzamide], the IC50 was below 2000 nM.

On to `CC(NC(=O)c1ccc(Cl)cc1)C1CCC(c2ccc(C(F)(F)F)nc2)CC1` (single isomer, unassigned) [Example 219, 4-chloro-N-(1-(4-(6-(trifluoromethyl)pyridin-3-yl)cyclohexyl)ethyl)benzamide], for which the IC50 was below 250 nM. For the compound `CC(NC(=O)c1ccc(Cl)cc1)C1CCC(c2ccc(C(F)(F)F)nc2)CC1` (single isomer, unassigned) [Example 220, 4-chloro-N-(1-(4-(6-(trifluoromethyl)pyridin-3-yl)cyclohexyl)ethyl)benzamide], the IC50 was below 250 nM. The result for `Cc1c(C2CCC(C(C)NC(=O)c3ccc(-c4ccccc4)cc3)CC2)ccnc1F` (single isomer, unassigned) [Example 222, N-(1-(4-(2-fluoro-3-methylpyridin-4-yl)cyclohexyl)ethyl)-[1,1′-biphenyl]-4-carboxamide] reads below 2000 nM. Consider `Cc1c(C2CCC(C(C)NC(=O)c3ccc(-c4ccccc4)cc3)CC2)ccnc1F` (single isomer, unassigned) [Example 223, N-(1-(4-(2-fluoro-3-methylpyridin-4-yl)cyclohexyl)ethyl)-[1,1′-biphenyl]-4-carboxamide], for which the half-inhibitory concentration (IC50) is below 50 nM.
